The source of these data is patent US20140155415A1, “BENZ[…] BENZODIOXINE COMPOUNDS THAT INTERACT WITH G[…] FOR THE TREATMENT OF DIABETES” (priority 2011, published 2014).

Structures are written as SMILES.

Assay [1] has as its target T1, GK-GKRP (glucokinase / glucokinase regulatory protein) (Homo sapiens, UniProt Q14397).
T1 sequence (Q14397 1-625): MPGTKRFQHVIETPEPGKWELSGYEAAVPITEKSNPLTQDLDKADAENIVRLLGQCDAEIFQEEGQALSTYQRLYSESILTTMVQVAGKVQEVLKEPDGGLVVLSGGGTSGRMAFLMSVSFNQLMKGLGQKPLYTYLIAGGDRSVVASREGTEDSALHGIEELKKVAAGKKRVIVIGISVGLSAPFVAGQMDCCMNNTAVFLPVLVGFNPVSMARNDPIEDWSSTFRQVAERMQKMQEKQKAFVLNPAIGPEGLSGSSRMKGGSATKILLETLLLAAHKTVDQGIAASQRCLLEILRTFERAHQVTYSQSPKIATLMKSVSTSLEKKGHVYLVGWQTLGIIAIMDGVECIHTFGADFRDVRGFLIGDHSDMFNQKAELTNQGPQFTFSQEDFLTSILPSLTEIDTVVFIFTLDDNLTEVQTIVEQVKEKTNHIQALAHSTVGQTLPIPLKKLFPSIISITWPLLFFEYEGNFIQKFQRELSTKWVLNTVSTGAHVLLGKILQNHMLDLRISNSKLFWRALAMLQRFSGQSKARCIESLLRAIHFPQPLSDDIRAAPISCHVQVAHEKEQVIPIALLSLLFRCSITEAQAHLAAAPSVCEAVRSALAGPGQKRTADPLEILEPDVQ
Description: GKRP LC MS/MS Biochemical Assay (LCMS/MS). The note with it: formation of 13C-glucose-6-phosphate from 13C-glucose by LC MS/MS, human His-hepatic GK, fructose-6-phosphate. The protocol:
GKRP LC MS/MS Biochemical Assay (LCMS/MS)
This assay is used to directly measure the formation of ^13C-glucose-6-phosphate from ^13C-glucose by LC MS/MS. Begin by preparing the following solutions: Compound Buffer (CB): 50 mM Tris, pH 7.5/4 mM MgCl2/6% DMSO/fresh 10 mM DTT from 1M frozen stock. Enzyme Buffer (EB): 50 mM Tris, pH 7.5/4 mM MgCl2/6% DMSO/fresh 0.1% BSA/fresh 0.01% Brij-35 (10% BSA and 1% Brij-35 stock). GK (Glucokinase) Working Stock (5×): Dilute human His-hepatic GK to 30 nM in EB buffer. […] Seal the plate and incubate for 30 minutes at room temperature while mixing. After 30 minutes add 10 μl of GK Working Stock (5×). Re-seal the plate and incubate for another 30 minutes at room temperature while mixing. After the second 30 minutes, stop the reaction by the addition of 50 μl of 100% acetonitrile, seal, and mix for 5-10 minutes. Run 10 μl of this sample through the LC MS/MS (API 3200, Applied Biosystems, Carlsbad, Calif.). […]
(§1) In the Examples, the assays are referred to as “LCMS/MS” or “Binding.”

The target of assay [2] is T2, GK-GKRP (interaction between glucokinase and glucokinase regulatory protein) (Homo sapiens, UniProt Q14397).
T2 construct: made in house; host or cells: GKRP: baculovirus system
T2 sequence (Q14397 1-625): T1 sequence (Q14397 1-625)
Description: GK-GKRP Binding Assay (Binding), AlphaScreen. To be noted: avi-tagged GKRP, GK-fluorescein, AlphaScreen beads, 1 μM sorbitol-6-phosphate; read-out: GK-GKRP IC50 (Binding). The protocol: GK-GKRP Binding Assay Protocol (Binding)
This assay is used to directly measure the interaction between glucokinase (GK) and glucokinase regulatory protein (GKRP). Begin by preparing the following solutions. Assay Buffer: 20 mM Tris, pH 7.5/0.05% BSA/1 mM DTT/1 μM sorbitol-6-phosphate. […] Combine the following reagents in a white 96-well half area plate. Pipette 14 μl of the diluted avi-tagged GKRP into each well. Add 1 μl of compound to be tested and incubate at room temperature for 20 minutes. After 20 minutes, add 5 μl of assay buffer containing 6 nM GK-fluorescein. […] Incubate in a dark room for 2 hours at room temperature. After 2 hours read the plate using an Envision plate reader (Perkin Elmer, Waltham Mass.).
Recombinant human glucokinase (hepatic) was purified and formulated in 50 mM Tris (pH 7.5), 150 mM NaCl and 20 mM glucose previous to labeling with fluorescein. […] Unreacted dye was removed by extensive dialysis into the final formulation buffer: 25 mM Tris (pH 7.2), 150 mM NaCl, 10% glycerol and 2 mM DTT. The human glucokinase regulatory protein construct was designed with a C-terminal avitag and was expressed in a baculovirus system. Purified GKRP was incubated overnight with recombinant biotin ligase in the presence of D-biotin, ATP and MgCl2. GKRP was isolated from reaction components by chromatography on a Superdex 200 size exclusion column into: 50 mM HEPES, 150 mM NaCl and 5 mM DTT. […] Proteins were quantitated according to their calculated molar extinction coefficients at A280 and were stored at −80° C.
as §1
A general note: Bead proximity is the source of the signal in Alpha formats.

`Cc1cc(F)ccc1C(NS(=O)(=O)c1ccc2c(c1)OCCCO2)c1cc2ccccc2o1` (racemic) [Example 3, N-(1-benzofuran-2-yl(4-fluoro-2-methylphenyl)methyl)-3,4-dihydro-2H-1,5-benzodioxepine-7-sulfonamide] displayed a concentration giving a half-maximal response (EC50) in assay [1] of 0.44 µM. The 50% inhibitory concentration (IC50) in assay [2] amounted to 1.8 µM. The matching figures for `Cc1ccc(F)cc1C(NS(=O)(=O)c1ccc2c(c1)OCCCO2)c1cc2ccccc2o1` (racemic) [Example 4, N-(1-benzofuran-2-yl(5-fluoro-2-methylphenyl)methyl)-3,4-dihydro-2H-1,5-benzodioxepine-7-sulfonamide]: 0.46 µM and 1.4 µM.

Regarding `Cc1cccc(F)c1C(NS(=O)(=O)c1ccc2c(c1)OCCCO2)c1cc2ccccc2o1` (racemic) [Example 5, N-(1-benzofuran-2-yl(2-fluoro-6-methylphenyl)methyl)-3,4-dihydro-2H-1,5-benzodioxepine-7-sulfonamide], the response in assay [1] was half-maximal at 0.79 µM (EC50). In addition, the 50% inhibitory concentration (IC50) in assay [2] worked out at 1 µM. The matching figures for `CCc1ccccc1C(NS(=O)(=O)c1ccc2c(c1)OCCCO2)c1cc2ccccc2o1` (racemic) [Example 6, N-(1-benzofuran-2-yl(2-ethylphenyl)methyl)-3,4-dihydro-2H-1,5-benzodioxepine-7-sulfonamide]: 0.067 µM and 0.22 µM. The compound `C=Cc1ccccc1C(NS(=O)(=O)c1ccc2c(c1)OCCCO2)c1cc2ccccc2o1` (racemic) [Example 7, N-(1-benzofuran-2-yl(2-ethenylphenyl)methyl)-3,4-dihydro-2H-1,5-benzodioxepine-7-sulfonamide] yielded an EC50 in assay [1] of 0.045 µM. The IC50 in assay [2] was determined as 0.098 µM.

In assay [1], `C#Cc1ccccc1C(NS(=O)(=O)c1ccc2c(c1)OCCCO2)c1cc2ccccc2o1` (racemic) [Example 8, N-(1-benzofuran-2-yl(2-ethynylphenyl)methyl)-3,4-dihydro-2H-1,5-benzodioxepine-7-sulfonamide] gave an EC50 of 0.072 µM. Further, the IC50 in assay [2] is 0.047 µM. Taken in the same sequence, the figures for `CC(C)c1ccccc1C(NS(=O)(=O)c1ccc2c(c1)OCCCO2)c1cc2ccccc2o1` (racemic) [Example 9, N-(1-benzofuran-2-yl(2-(1-methylethyl)phenyl)methyl)-3,4-dihydro-2H-1,5-benzodioxepine-7-sulfonamide] were 0.28 µM and 1.1 µM. The matching figures for `Cc1cccc(C)c1C(NS(=O)(=O)c1ccc2c(c1)OCCCO2)c1cc2ccccc2o1` (racemic) [Example 10, N-(1-benzofuran-2-yl(2,6-dimethylphenyl)methyl)-3,4-dihydro-2H-1,5-benzodioxepine-7-sulfonamide]: 3.8 µM and 4.1 µM. The matching figures for `CCCc1ccccc1C(NS(=O)(=O)c1ccc2c(c1)OCCCO2)c1cc2ccccc2o1` (racemic) [Example 11, N-(1-benzofuran-2-yl(2-propylphenyl)methyl)-3,4-dihydro-2H-1,5-benzodioxepine-7-sulfonamide]: 1.7 µM and 1.8 µM. As to `O=S(=O)(NC(c1cc2ccccc2o1)c1ccccc1C(F)(F)F)c1ccc2c(c1)OCCCO2` (racemic) [Example 12, N-(1-benzofuran-2-yl(2-(trifluoromethyl)phenyl)methyl)-3,4-dihydro-2H-1,5-benzodioxepine-7-sulfonamide], in assay [1], the EC50 worked out at 0.32 µM. Moreover, the 50% inhibitory concentration (IC50) in assay [2] came to 1 µM. Taken in the same sequence, the figures for `O=S(=O)(NC(c1cccc(O)c1)c1cc2ccccc2o1)c1ccc2c(c1)OCCCO2` (racemic) [Example 13, N-(1-benzofuran-2-yl(3-hydroxyphenyl)methyl)-3,4-dihydro-2H-1,5-benzodioxepine-7-sulfonamide] were 1.8 µM and 2.5 µM. Regarding `Nc1cccc(C(NS(=O)(=O)c2ccc3c(c2)OCCCO3)c2cc3ccccc3o2)c1` (racemic) [Example 14, N-((3-aminophenyl)(1-benzofuran-2-yl)methyl)-3,4-dihydro-2H-1,5-benzodioxepine-7-sulfonamide], the response in assay [1] was half-maximal at 1.6 µM (EC50). Besides, the half-maximal inhibitory concentration (IC50) in assay [2] was 1.2 µM. Taken in the same sequence, the figures for `O=S(=O)(NC(c1cc2ccccc2o1)c1ccccc1CO)c1ccc2c(c1)OCCCO2` (racemic) [Example 15, N-(1-benzofuran-2-yl(2-(hydroxymethyl)phenyl)methyl)-3,4-dihydro-2H-1,5-benzodioxepine-7-sulfonamide] were 1.6 µM and 4.6 µM. Taken in the same sequence, the figures for `COc1ccccc1C(NS(=O)(=O)c1ccc2c(c1)OCCCO2)c1cc2ccccc2o1` (racemic) [Example 17, N-(1-benzofuran-2-yl(2-methoxyphenyl)methyl)-3,4-dihydro-2H-1,5-benzodioxepine-7-sulfonamide] were 0.095 µM and 0.17 µM. Taken in the same sequence, the figures for `O=S(=O)(NC(c1cc2ccccc2o1)c1ccccc1OC(F)(F)F)c1ccc2c(c1)OCCCO2` (racemic) [Example 18, N-(1-benzofuran-2-yl(2-(trifluoromethoxy)phenyl)methyl)-3,4-dihydro-2H-1,5-benzodioxepine-7-sulfonamide] were 0.34 µM and 0.97 µM.

Take `CSc1ccccc1C(NS(=O)(=O)c1ccc2c(c1)OCCCO2)c1cc2ccccc2o1` (racemic) [Example 19, N-(1-benzofuran-2-yl(2-(methylsulfanyl)phenyl)methyl)-3,4-dihydro-2H-1,5-benzodioxepine-7-sulfonamide]: the 50% effective concentration (EC50) in assay [1] amounted to 0.038 µM. Further, the IC50 in assay [2] is 0.16 µM. Taken in the same sequence, the figures for `O=S(=O)(NC(c1cc2ccccc2o1)c1ccccc1Cl)c1ccc2c(c1)OCCCO2` (racemic) [Example 20, N-(1-benzofuran-2-yl(2-chlorophenyl)methyl)-3,4-dihydro-2H-1,5-benzodioxepine-7-sulfonamide] were 0.07 µM and 0.22 µM. As to `O=S(=O)(NC(c1cc2ccccc2o1)c1cccnc1Cl)c1ccc2c(c1)OCCCO2` (racemic) [Example 27, N-(1-benzofuran-2-yl(2-chloro-3-pyridinyl)methyl)-3,4-dihydro-2H-1,5-benzodioxepine-7-sulfonamide], the EC50 in assay [1] was 1.2 µM. The same measure, in the same setting: as for `O=S(=O)(NC(c1cc2ccccc2o1)c1ccncc1Cl)c1ccc2c(c1)OCCCO2` (racemic) [Example 28, N-(1-benzofuran-2-yl(3-chloro-4-pyridinyl)methyl)-3,4-dihydro-2H-1,5-benzodioxepine-7-sulfonamide], the figure is 1.6 µM; as for `O=S(=O)(NC(c1ccsc1)c1cc2ccccc2o1)c1ccc2c(c1)OCCCO2` (racemic) [Example 32, N-(1-benzofuran-2-yl(3-thiophenyl)methyl)-3,4-dihydro-2H-1,5-benzodioxepine-7-sulfonamide], 1.4 µM. On the same count and under the same terms, the value for `Cc1ccccc1[C@H](NS(=O)(=O)c1ccc2c(c1)OCCCO2)c1cc2ccccc2o1` (single isomer, unassigned) [Example 2 Peak #1] was greater than 50 µM.

Regarding `Cc1ccccc1[C@@H](NS(=O)(=O)c1ccc2c(c1)OCCCO2)c1cc2ccccc2o1` (single isomer, unassigned) [Example 2 Peak #2], it took 0.043 µM to reach a half-maximal effect in assay [1] (EC50).

In general, EC50 refers to the concentration at which the effect is half-maximal. Higher therefore signals weaker potency. A word on the IC50: it is the concentration that inhibits the measured activity by half.
